The source of these data is patent US6872750B2, “Modulating angiogenesis” (Regents of the University of California, priority 2000, dated 2005).

For test [1], the system named is Kuz. Kind of test: Inhibition of angiogenesis by Kuz inhibitors in several model systems. The method, then:
The presence of Kuz and its activity is assayed by ELISA and Kuz-specific protease activity prior to or subsequent to the measure of angiogenesis.

For test [2], the system named is HUVEC. As to the kind of experiment: HUVEC formation of vascular-like structures on Matrigel. The note with it: HUVEC on growth factor-reduced Matrigel, 8-12 h. It counts as cell-based, human. The method, then:
The formation of vascular-like structures by HUVEC is assessed on the basement membrane matrix preparation, growth factor-reduced Matrigel (Becton Dickinson, Bedford, Mass.), as described in Kureishi Y, et al. Nat Med 2000 September;6(9):1004-10. Two-well chamber slides are coated with Matrigel (10 mg/ml) according to the manufacturer's instructions. HUVEC are seeded on coated plates at 4-5×10^4 cells/well in EBM and incubated at 37° C. for 60 minutes. The media are supplemented with the agents (metalloprotease domain of human Kuz, Kuz inhibitors, Kuz antibodies, VEGF, etc.) and incubated at 37° C. for 8-12 h. Tube formation image is observed using an inverted phase contrast microscope (Nikon Diaphot). Images are captured with a video graphic system (DEI-750 CE Digital Output Camera, Optronics, Goleta, Calif.). The degree of tube formation is quantified by measuring the length of tubes in random fields from each well using the National Institutes of Health (NIH) Image Program.

Take `CNC(=O)[C@H](Cc1c[nH]c2ccccc12)NC(=O)[C@@H](CC(=O)NO)CC(C)C` [GM6001, NHOHCOCH2CH(1-Bu)CO-Trp-NHMe]: the inhibition of angiogenesis entry in test [1] was “inhibit angiogenesis”.

As to VEGF, the “formation of capillary-like tubes” value in test [2] is given as “promotes the formation of capillary-like tubes”.

In the case of `CC(C)CC(CC(=O)NO)C(=O)N[C@@H](C)C(=O)NCCN` (stereo partly drawn) [IC-3, N-{D,L-[2-(hydroxyaminocarbonyl)methyl]-4-methyl-pentanoyl}-L-alanine, 2-aminoethyl amide], the inhibition of angiogenesis result in test [1] is reported as “inhibit angiogenesis”.

On to “TIMP-1: natural MMP inhibitor, tissue inhibitor of MMPs”, for which, in test [1], the inhibition of angiogenesis entry is on record as “inhibit angiogenesis”.
